Consider four compounds from patent US12391698B2, “Substituted piperidines and piperazines and methods for the treatment of CNS disorders” (SUVEN LIFE SCIENCES LIMITED, priority 2022, dated 2025).

Structures are written as SMILES. Where a name gives a salt, the structure may show the parent alone. Read-outs that look alike come from different tables or passages of the source.

Data set [1] deals with T1, cloned human 5-HT2A receptor (Homo sapiens, UniProt P28223).
T1 construct: expressed in transfected cells; host or cells: CHO-K1
Nature of the data set: Determination of Ki at 5-HT2A receptor (radioligand binding, [3H]-Ketanserine). The settings on record: CHO-K1 recombinant cells, [3H]-Ketanserine 1.25 nM. The method, boiled down: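 Membranes from CHO-K1 cells expressing the receptor, incubated 1 h at r.t. with 1.25 nM [3H]-ketanserin in pH 7.4 Tris-HCl 50 mM, 4 mM CaCl2, 0.1% ascorbic acid. Nonspecific binding defined with 0.1 mM 1-naphthylpiperazine; bound label measured after filtration.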

For data set [2], the target named is T2, hD2S (cloned human dopamine D2S receptor) (Homo sapiens, UniProt P14416).
T2 construct: expressed in transfected cells; host or cells: CHO-K1
Nature of the data set: Determination of Ki at D2S receptor (radioligand binding, [3H]-Raclopride). The settings on record: CHO-K1 recombinant cells, [3H]-Raclopride 4 nM. The method, boiled down:
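Displacement of 4 nM [3H]-Raclopride from membranes of CHO-K1 cells expressing the receptor, 2 h at r.t. in 50 mM Tris-HCl pH 7.4 with 120 mM NaCl, 5 mM KCl, 5 mM MgCl2, 1 mM EDTA. Non-specific binding defined with 0.1 mM haloperidol; filter-bound radioactivity compared with control.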

The target of data set [3] is T3, recombinant human D2S receptor (Homo sapiens, UniProt P14416).
T3 construct: expressed in transfected cells
Briefly: Determination of Kb at D2S receptor, pCRE-Luc reporter gene assay in CHO cells. The class given is cell-based. The settings on record: for agonist activity at human recombinant D2S receptor / antagonistic activity at human recombinant D2S receptor: pCRE-Luc reporter gene assay; for Kb: with 0.3 μM Dopamine and 1 μM forskolin, luciferase readout. The procedure: A stable CHO cell line expressing recombinant human […] receptor and pCRE-Luc reporter system was used for cell-based assay. The assay offers a non-radioactive based approach to determine binding of a compound to GPCRs. In this specific assay, the level of intracellular cAMP which is modulated by activation or inhibition of the receptor is measured. The recombinant cells harbor luciferase reporter gene under the control of cAMP response element.
(§1) The above cells were grown in 96 well clear bottom white plates in Hams F12 medium containing 10% fetal bovine serum (FBS). Prior to the addition of compounds or standard agonist, cells were serum starved overnight. Increasing concentrations of test compound were added along with 0.3 μM of Dopamine and 1 μM of forskolin in Opti-MEM medium to the cells. The incubation was continued at 37° C. in CO2 incubator for 4 hours. Medium was removed and cells were washed with phosphate buffered saline. The cells were lysed and luciferase activity was measured in a Luminometer. Luminescence units were plotted against the compound concentrations using GraphPad Prism software. EC50 values of the compounds were defined as the concentration required in reducing the luciferase activity by 50%. The Kb values were calculated by feeding the concentration of agonist used in the assay and its EC50 value in the same software.
References: European Journal of Pharmacology, 2005, 515, 10-19.
A general note: In a reporter assay the amount or activity of a reporter protein is the signal.

For data set [4], the target named is T4, recombinant rat 5-HT7 receptor (Rattus norvegicus, UniProt P32305).
T4 construct: expressed in transfected cells
Nature of the data set: Determination of Kb at 5-HT7 receptor, pCRE-Luc reporter gene assay in CHO cells. The class given is cell-based. The settings on record: for antagonistic activity at rat recombinant 5-HT7 receptor: pCRE-Luc reporter gene assay. How it is done:
A stable CHO cell line expressing recombinant rat 5-HT7 receptor and pCRE-Luc reporter system was used for cell-based assay. The assay offers a non-radioactive based approach to determine binding of a compound to GPCRs. In this specific assay, the level of intracellular cAMP which is modulated by activation or inhibition of the receptor is measured. The recombinant cells harbor luciferase reporter gene under the control of cAMP response element.
as §1, with “with” for “with 0.3 μM of Dopamine and”, “serotonin” for “forskolin”

Another data set deals with Male Sprague Dawley rats. Nature of the data set: Amphetamine-induced hyperlocomotion. The class given is in vivo, rat. The settings on record: 3 mg/kg, p.o., dosed 30 min prior to trial. The procedure: Male Sprague Dawley rats of 230-280 g body weight were used. Rats were weighed and randomized according to their body weights. Following day, the rats were brought to the laboratory 1 h prior to test. In the morning session, rats were habituated to open field arena for 15 min. Test compound/vehicle and amphetamine/vehicle were administered 30 min prior to the trial. After the post-dose interval, rats were placed in the open field and locomotion was recorded for a period of 15 min. Amphetamine-induced hyperlocomotion models positive symptoms of schizophrenia.

For data set [5], the system named is Male Wistar rats. Nature of the data set: MK-801-induced amnesia in novel object recognition task (NORT). It counts as in vivo, rat. The settings on record: 0.3 mg/kg, p.o., MK-801 0.03 mg/kg, i.p. The procedure: Male Wistar rats of 230-280 g body weight were used. Rats were weighed and randomized according to their body weights. On day 1, animals were habituated to the arenas for 45 min. On day 2, 30 min before the trial-1 animals were administered with vehicle (WFI) or test compound and 20 min before the trial-1 the animals were administered with MK-801 0.03 mg/kg, i.p. Trial-1 is familiarization task in the arena with two similar kind of silver color flasks of same dimensions for a period of 3 min. After an inter trial interval of 90 min animals were subjected to recognition task in the arena with one silver and one violet bottle for a period of 3 min. Time spent by the rats with either familiar or novel objects was noted and analyzed. MK-801-induced amnesia in novel object recognition task models cognitive deficits associated with schizophrenia.

For data set [6], the system named is Male Wistar rats. Briefly: Rotarod test. The class given is in vivo, rat. The settings on record: 30 mg/kg p.o., 60 min prior to trial. How it is done:
Male Wistar rats of 200-280 g body weight were used. Rats were weighed and randomized according to their body weights. The animals were habituated on a rotating rod (4 rpm) for 4 times. Animals which successfully stayed on the rotating rod for 60 seconds (out of 4 trials per animal) were selected for further study. […] A single trial was carried out on the next day. Animals that were able to stay on the rotating rod for 60 seconds were chosen for further study. Animals were administered with test compound or vehicle 60 min prior to the trial. The latency to fall from the rotating rod was noted. Rotarod test assesses effects of test compound on motor functions.
In general terms: The rotarod test checks motor coordination on a turning rod.

Data set [7] addresses T4, recombinant rat 5-HT7 receptor. Nature of the data set: Determination of Kb at 5-HT7 receptor, pCRE-Luc reporter gene assay in CHO cells. It counts as cell-based.
The mark [8] stands for this setting: rat receptor, with 1 μM serotonin, luciferase readout, read-out: Kb at 5-HT7 receptor.

What is called Ki is a measure of affinity in units of concentration, obtained from inhibition or displacement.

T2 sequence (P14416 1-414 isoform P14416-2): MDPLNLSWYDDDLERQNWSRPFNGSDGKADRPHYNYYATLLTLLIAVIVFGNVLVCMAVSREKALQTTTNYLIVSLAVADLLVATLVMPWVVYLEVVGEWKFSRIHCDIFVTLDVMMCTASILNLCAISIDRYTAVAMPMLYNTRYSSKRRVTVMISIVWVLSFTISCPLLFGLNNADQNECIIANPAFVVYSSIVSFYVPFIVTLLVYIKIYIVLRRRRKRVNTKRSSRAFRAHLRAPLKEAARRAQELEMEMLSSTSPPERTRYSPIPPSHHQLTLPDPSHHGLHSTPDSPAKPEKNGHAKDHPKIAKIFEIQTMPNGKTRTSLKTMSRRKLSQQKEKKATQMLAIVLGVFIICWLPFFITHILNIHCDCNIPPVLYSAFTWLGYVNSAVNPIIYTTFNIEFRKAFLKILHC
T3 sequence (P14416 1-414 isoform P14416-2): as above
T1 sequence (P28223 whole entry): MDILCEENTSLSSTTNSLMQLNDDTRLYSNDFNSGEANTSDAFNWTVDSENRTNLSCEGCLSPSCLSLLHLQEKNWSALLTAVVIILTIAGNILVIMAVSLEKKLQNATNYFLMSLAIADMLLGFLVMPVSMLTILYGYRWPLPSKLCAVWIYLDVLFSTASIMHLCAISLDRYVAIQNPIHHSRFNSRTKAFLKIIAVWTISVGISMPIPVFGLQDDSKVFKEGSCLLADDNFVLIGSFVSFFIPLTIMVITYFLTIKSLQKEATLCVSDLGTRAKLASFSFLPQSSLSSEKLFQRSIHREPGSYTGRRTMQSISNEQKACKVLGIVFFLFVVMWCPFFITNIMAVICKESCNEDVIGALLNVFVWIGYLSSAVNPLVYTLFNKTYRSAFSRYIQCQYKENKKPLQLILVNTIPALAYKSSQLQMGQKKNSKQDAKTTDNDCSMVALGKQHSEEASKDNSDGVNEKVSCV
T4 sequence (P32305 whole entry): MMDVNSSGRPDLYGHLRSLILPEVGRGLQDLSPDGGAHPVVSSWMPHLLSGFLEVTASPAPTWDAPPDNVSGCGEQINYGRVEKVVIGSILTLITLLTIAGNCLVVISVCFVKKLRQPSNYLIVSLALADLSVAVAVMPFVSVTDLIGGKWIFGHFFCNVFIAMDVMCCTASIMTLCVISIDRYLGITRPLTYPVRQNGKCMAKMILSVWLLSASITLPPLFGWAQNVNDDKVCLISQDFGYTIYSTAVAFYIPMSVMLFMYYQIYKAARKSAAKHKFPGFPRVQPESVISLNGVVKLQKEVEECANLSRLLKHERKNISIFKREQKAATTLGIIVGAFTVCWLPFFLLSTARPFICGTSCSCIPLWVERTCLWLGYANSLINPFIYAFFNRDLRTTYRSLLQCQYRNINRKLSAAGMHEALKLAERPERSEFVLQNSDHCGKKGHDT

`O=C1C[C@@H]2CCCN2C(=O)N1CCCCN1CCN(c2nsc3ccccc23)CC1` [Example 2, 2-[4-(4-Benzo[d]isothiazol-3-yl-piperazin-1-yl)-butyl]-tetrahydro-pyrrolo[1,2-c]pyrimidine-1,3-dione oxalate]: in data set [1] (read-out: Ki h5-HT2A), the Ki turned out to be 0.6 nM. Moreover, the Ki in data set [2] (read-out: Ki hD2S) was found to be 5.4 nM. In addition, in data set [3], the “agonist activity at human recombinant D2S receptor” value was “no detectable agonist activity”, the “antagonistic activity at human recombinant D2S receptor” value is “antagonistic activity” and the Kb was 33 nM. For the same compound, the “antagonistic activity at rat recombinant 5-HT7 receptor” value in data set [4] was “antagonistic activity”. Moreover, the Kb in data set [4] (setting [8]) amounted to 0.6 nM. In addition, in the data set with Male Sprague Dawley rats, the “Inference, amphetamine antagonism (hyperlocomotion)” value is “Active”. For the same compound, the “Inference, MK-801-induced amnesia in NORT” value in the data set on Male Wistar rats [5] is “Active”. The “Inference, rotarod test (motor incoordination side effects)” value in the data set on Male Wistar rats [6] is given as “No motor incoordination”. Also, the “agonist activity at rat recombinant 5-HT7 receptor” value in data set [7] is given as “no detectable agonist activity”.

For the compound `O=C1C[C@@H]2CCCN2C(=O)N1CCCCN1CCN(c2cccc3sccc23)CC1` [Example 4, 2-[4-(4-Benzo[b]thiophen-4-yl-piperazin-1-yl)-butyl]-tetrahydro-pyrrolo[1,2-c]pyrimidine-1,3-dione oxalate], the Ki in data set [1] (read-out: Ki h5-HT2A) is 4.24 nM. Besides, the Ki in data set [2] (read-out: Ki hD2S) amounted to 1.83 nM. Further, in data set [3], the “agonist activity at human recombinant D2S receptor” value is listed as “no detectable agonist activity”, the “antagonistic activity at human recombinant D2S receptor” value was “antagonistic activity” and the Kb was 54.4 nM.

In the case of `O=C1C[C@@H]2C[C@H](F)CN2C(=O)N1CCCCN1CCN(c2nsc3ccccc23)CC1` [Example 9, 2-[4-(4-Benzo[d]isothiazol-3-yl-piperazin-1-yl)-butyl]-6-fluoro-tetrahydro-pyrrolo[1,2-c]pyrimidine-1,3-dione oxalate], the results for the Ki in data set [1] (read-out: Ki h5-HT2A) and in data set [2] (read-out: Ki hD2S) were 2.49 nM and 2.78 nM, respectively. In addition, the “antagonistic activity at rat recombinant 5-HT7 receptor” value in data set [4] is “antagonistic activity”. In data set [4] (setting [8]), the Kb was 0.7 nM. Besides, the “agonist activity at rat recombinant 5-HT7 receptor” value in data set [7] was “no detectable agonist activity”.

With `O=C1C[C@@H]2C[C@H]3C[C@H]3N2C(=O)N1CCCCN1CCN(c2nsc3ccccc23)CC1` [Example 11, 3-[4-(4-Benzo[d]isothiazol-3-yl-piperazin-1-yl)-butyl]-hexahydro-1b,3-diaza-cyclopropa[a]indene-2,4-dione oxalate], the figures for the Ki in data set [1] (Ki h5-HT2A) and in data set [2] (Ki hD2S) were 1.02 nM and 0.62 nM, respectively. In addition, the Kb in data set [4] came to 0.17 nM. Besides, the “antagonistic activity at rat recombinant 5-HT7 receptor” value in data set [4] was “antagonistic activity”. For the same compound, the “agonist activity at rat recombinant 5-HT7 receptor” value in data set [7] is “no detectable agonist activity”.
